Experimental data from patent US20140106354A1, “Method of Diagnosing Cancer” (GARVAN INSTITUTE OF MEDICAL RESEARCH, priority 2011, published 2014).

What was measured:
Format in all cases: cell-based, human
A2780 cells = experiment: Pharmacological reactivation of methylated genes by 5-Aza-dC, Affymetrix U133 plus 2 expression arrays, A2780; conditions: A2780, 5 μM, 24 hours
Protocol: (§1) Experiments were performed in triplicate using ovarian cancer cell lines A2780 and CaOV3, derived from primary Type II EOC. Cell lines were treated at 30% confluence with 5 μM and 2.5 μMrespectively (concentrations previously optimized to minimize cellular toxicity, data not shown), with the DNA methyltransferase inhibitor 5-aza-2′ deoxycytidine (5-Aza-dC), (Sigma Aldrich, St. Louis Mo., USA) for 24 hours. Cells were then expanded to 90% confluency, media changed every 24 hr before extracting RNA (RNeasy, Qiagen). As a positive control, re-expression and DNA demethylation for the methylated gene DLEC1 was verified by qPCR and clonal bisulphite sequencing.
(§2) Total RNA from A2780 and CaOV3 cell lines, plus and minus treatment with 5-Aza-dC was characterized on the Agilent bioanalyzer RNA nano chip (Agilent, Foster City Calif., USA) for an RNA integrity number (RIN) of >9.0, labeled and hybridized to Affymetrix human genome U133 plus 2 GeneChips essentially according to manufacturer's instructions. The GeneChip scans were analyzed by GCOS (Affymetrix) and resulting probeset intensities normalized by the robust multi-array average (RMA) method (Irizarry, et al., Biostatistics 4: 249-264, 2003). […] The data were normalized separately for each cell line and robust multichip average (RMA) values for analysis were imported into Genespring GX 7.3. Genes re-expressed by 5-Aza-dC were identified as “absent” (undetectable) in all three replicate untreated samples and “present” or “marginal” (detectable) in two of three replicate 5-Aza-dC treated samples.
(§3) Three steps were implemented to identify aberrantly silenced and methylated genes in EOC. First, to identify genes potentially silenced by DNA methylation, genome wide epigenetic reexpression profiles were generated for two ovarian cancer cell lines. […] Genes showing potential methylation-based silencing were identified if they were undetectable in the untreated cells, but re-expressed by 5-Aza-dC treatments. Using these criteria 947 and 1091 probesets were identified in A2780 and CaOV3 cells respectively, that were reactivated.

CaOV3 cells = experiment: Pharmacological reactivation of methylated genes by 5-Aza-dC, Affymetrix U133 plus 2 expression arrays, CaOV3; conditions: CaOV3, 2.5 μM, 24 hours
Protocol: as §1, §2, §3

DLEC1 = experiment: Positive control: re-expression and demethylation of DLEC1 (qPCR, clonal bisulphite sequencing); conditions: A2780 and CaOV3 cells treated with 5-Aza-dC
Protocol: as §1

Nc1ncn([C@H]2C[C@H](O)[C@@H](CO)O2)c(=O)n1 [5-Aza-dC, 5-aza-2′ deoxycytidine]
probesets reactivated (undetectable in untreated cells, re-expressed by 5-Aza-dC) (A2780 cells; HGU133 plus 2.0): 947 probesets | Fold Change 5-aza-dC vs (A2780 cells; ARMXC1 mRNA, probeset 218694_at): 1.19 | Fold Change 5-aza-dC vs (A2780 cells; HSPA2 mRNA, probeset 211538_s_at): 33.78 | Fold Change 5-aza-dC vs (A2780 cells; IL18 mRNA, probeset 206295_at): 1.20 | Fold Change 5-aza-dC vs (A2780 cells; LTBP2 mRNA, probeset 223690_at): 1.57 | Fold Change 5-aza-dC vs (A2780 cells; PAPLN mRNA, probeset 226435_at): 2.78 | Fold Change 5-aza-dC vs (A2780 cells; PARVA mRNA, probeset 222454_s_at): 1.78 | Fold Change 5-aza-dC vs (A2780 cells; PEG3 mRNA, probeset 209242_at): 3.87 | Fold Change 5-aza-dC vs (A2780 cells; PYCARD mRNA, probeset 221666_s_at): 3.72 | Fold Change 5-aza-dC vs (A2780 cells; SCIN1 mRNA, probeset 1552365_at): 1.28 | Fold Change 5-aza-dC vs (A2780 cells; SGNE1 mRNA, probeset 203889_at): 4.15 | Fold Change 5-aza-dC vs (A2780 cells; SOCS1 mRNA, probeset 210001_s_at): 4.80 | Fold Change 5-aza-dC vs (A2780 cells; SPOCK2 mRNA, probeset 202524_s_at): 1.41 | Fold Change 5-aza-dC vs (A2780 cells; ZNF177 mRNA, probeset 207417_s_at): 1.61 | Fold Change 5-aza-dC vs (A2780 cells; ZNF542 mRNA, probeset 239250_at): 2.35 | Fold Change 5-aza-dC vs (CaOV3 cells; BMP6 mRNA, probeset 206176_at): 1.25 | Fold Change 5-aza-dC vs (CaOV3 cells; CST6 mRNA, probeset 231248_at): 1.96 | probesets reactivated (undetectable in untreated cells, re-expressed by 5-Aza-dC) (CaOV3 cells; HGU133 plus 2.0): 1091 probesets | Fold Change 5-aza-dC vs (CaOV3 cells; ICAM4 mRNA, probeset 207194_s_at): 1.89 | Fold Change 5-aza-dC vs (CaOV3 cells; KLF4 mRNA, probeset 220266_s_at): 3.78 | Fold Change 5-aza-dC vs (CaOV3 cells; LOC134466 RNA, probeset 244289_at): 1.18 | Fold Change 5-aza-dC vs (CaOV3 cells; PTGER mRNA, probeset 213933_at): 1.32 | Fold Change 5-aza-dC vs (CaOV3 cells; TLE4 mRNA, probeset 204872_at): 1.20 | re-expression and demethylation of the methylated gene DLEC1 (DLEC1): induce re-expression and demethylation
